Data reported in patent US9132118B2, “Taxane analogs for the treatment of brain cancer” (Tapestry Pharmaceuticals, Inc., priority 2007, dated 2015).

Legend:
[1] = tested on: bovine microtubule protein (tubulin plus microtubule associated proteins); experiment: In vitro ED50 MT polymerization study (DAPI fluorescence tubulin assay); type: biochemical; conditions: for ED50 Compound/ED50 Paclitaxel: ratio of tubulin polymerization ED50 values; for EC50: tubulin polymerization, 37° C. 30 minutes, percent of maximum assembly at 25 μM paclitaxel
Protocol: In this tubulin binding assay, microtubule protein (MTP) is used as a substrate. The assay contains bovine tubulin plus microtubule associated proteins (MAP). MTP is polymerized into microtubules in the presence of DAPI (4′,6′-diamidino-2-phenylindole), a fluorescent compound. DAPI binds to tubulin; when microtubules are formed and there is an enhancement of fluorescence. The microtubule formation is measured as a function of time, using a fluorescence plate reader. […] The method used is based on the procedure published by Donna M. Barron, et al, “Fluorescence-based high-throughput assay for antimicrotuble drugs” Analytical Biochemistry, 315: 49-56, 2003, which is incorporated by reference in its entirety. The excitation wavelength, in that assay, was set at 370 nm and the emission wavelength was set at 450 nm for the DAPI experiments.
A Bio-Tek FL 600 microplate Fluorescence Reader was used to measure the relative level of fluorescence in the DAPI assay.
Assays were conducted in 96-well plates. […] The final DMSO concentration was 4%. The plates were incubated at 37° C. for 30 minutes and read in a fluorescence plate reader using an excitation wavelength of 360 nm and an emission wavelength of 460 nm. Fluorescence values were corrected for the sample without compound. […] Experiments were done twice in triplicate. Results were subsequently combined and fit to a non-linear regression program.

[2] = tested on: human U251 (glioblastoma) CNS tumor cells
Source text: Tumor Model: Each animal was implanted with one million U251 human CNS tumor cells from an in vitro cell line by ic injection with a 25 gauge needle. The day of tumor implantation (May 24, 2006) was designated as day 0. A sufficient number of mice were implanted so that animals with body weights in a range as narrow as possible were selected for the trial on the day of treatment initiation (day 1 after tumor implantation). Animals were randomly assigned to the treatment groups and individually identified by earmark codes.
A portion of this solution was then diluted with the complete vehicle to achieve the lower dosing concentration of 1.2 mg/mL. […] Temozolomide (Temodar, Schering Corporation) was prepared on each day of injection in Klucel+tween 80 at a concentration of 4 mg/mL. Temozolomide was administered within 5 minutes of formulation on the basis of exact body weight using a volume of 0.2 mL/10 g of body weight.
Data Collection: Animal health surveillance was conducted and mortality data were collected daily. The animals were weighed twice weekly starting with the first day of treatment.
Study Duration: The study was terminated 100 days after tumor implantation. Any animal found moribund or whose body weight dropped below 14 g was euthanized prior to study termination.
Parameters Evaluated: Number of 100-day survivors, median day of death, and the increase in lifespan based on median day of death and expressed as a percentage (% ILS), median survival time and the % ILS based on median survival time.
Administration of the Ringer's solution was initiated when animal body weights dropped by greater than 10% and continued until the animal recovered, died, or was euthanized.

[3] = temozolomide 80 mg/kg/dose po q4d×3

SMILES | ED50 Compound/ED50 Paclitaxel [1] | EC50 [1] [µM] | ILS ([2]; Group 4: TMZ 80 mg/kg, po. QD1, 5, 9) [%] | loss in mean body weight [2, 3] [%] | treatment-related deaths (in words) [2, 3]
C/C(=C\c1csc(C)n1)[C@@H]1C[C@@H]2O[C@]2(C)CCC[C@H](C)[C@H](O)[C@@H](C)C(=O)C(C)(C)[C@@H](O)CC(=O)O1 [Epothilone B] | 1.11 | 3.31 ± 0.51 |  |  | 
Cn1nnc2c(C(N)=O)ncn2c1=O [Temozolomide, reference compound] |  |  | 380 | 8 | without treatment-related deaths
CC(=O)O[C@@]12CO[C@@H]1C[C@H](O)[C@@]1(C)C(=O)[C@H](O)C3=C(C)[C@@H](OC(=O)[C@H](O)[C@@H](NC(=O)OC(C)(C)C)c4ccccc4)C[C@@](O)([C@@H](OC(=O)c4ccccc4)[C@H]21)C3(C)C [Docetaxel, docetaxel] | 1.07 | 3.18 ± 0.45 |  |  | 
